Source: US20230358677A1, “Reversible Excited-State Photoacids and Photobases as Dynamic Fluorescence Sensors of Protonic Species” (California Institute of Technology, priority 2022, published 2023)

Experiments:
[1] = Marcus-Cohen bond-energy-bond-order (BEBO) analysis of quenching rate constants; assay type: physicochemical
Description: Several embodiments provide accurate quantification of excited-state Brønsted-Lowry acidity and reorganization energy of weak photoacids using Marcus-Cohen bond-energy-bond-order (BEBO) theory. Data for this series of proton-accepting quenchers analyze the dependence of driving force on ESPT quenching rate constants and assess the validity of Marcus normal region behavior, as has been performed numerous times for excited-state electron transfer and proton-coupled electron transfer. Like excited-state electron-transfer quenching in polar solvents, ESPT is proposed to proceed through formation of an excited-state encounter complex between reactants prior to proton transfer, but unique to ESPT is dissociation of an excited-state encounter complex between products after proton transfer. […]
where ΔGEC,R^o, ΔGPT^oand −ΔGEC,P^o are the standard Gibbs free energy differences for the individual reaction steps in the excited-state proton-transfer reaction sequence. Kinetic data (Equation 8) and thermodynamic data (Equation 11) are analyzed using Marcus-Cohen bond-energy-bond-order (BEBO) theory, which is based on transition-state theory and results in the following relationship between ΔGPT^‡ and ΔGPT^o, […]

[2] = Acid-base titrations of NS—NH2 in the presence of proton-accepting quenchers (modified Stern-Volmer, Equation 7); conditions: for KSV,OH−: Equation 7; for k+q,corr: corrected rate constant, ESPT from NS—NH2* to the proton acceptor; for k+q: direct excited-state proton transfer from NS—NH2* to the proton acceptor; for pKa,BH+ (Equation 7), value after the slash: equals titration-curve values of b153; for KSV,quencher (Equation 7) / KSV,quencher (traditional linearized Stern-Volmer): quenching of NS—NH2*
Description: Assuming that photoluminescence quenching occurs by ESPT from NS—NH2* to OH^−(aq), the data support that when aOH− is small (i.e. at pH less than about 12), ESPT can be quite slow compared to the excited-state lifetime of NS—NH2*, due to mass action (FIG. 2B). The non-unity quantum yield for ESPT in weakly alkaline aqueous solutions afforded us an opportunity to evaluate a series of aqueous proton-accepting quenchers (glycine (Gly(aq)), proline (Pro(aq)), and trifluoroethanol (TFE(aq))) for their ability to undergo ESPT with NS—NH2*. In order to clearly observe ESPT to a species other than OH^−(aq), added proton-accepting quenchers had to be more basic (ΔG^o<0), or slightly more acidic (ΔG^o>0), than NS—NH2*, and less basic than OH^−(aq). […] As pH values approach and pass the pKa of the proton-accepting quencher, the rate of ESPT slows from a decrease in the concentration of proton-accepting quencher due to its protonation. This is supported by observations from analogous experiments performed using different concentrations of quencher. Best fits of measured photoluminescence spectroscopy data to a modified Stern-Volmer equation for a two-quencher system, including both OH^−(aq) and proton-accepting quencher, provided bimolecular rate constants for deprotonation of the photoacid by each quencher,
where KSV,OH−=K*^−1b and KSV,quencher=k+q,quencherτo,PAH* are the dynamic quenching constants for excited-state proton transfer to OH^−(aq) and proton-accepting quencher, respectively, k+q,quencher is the bimolecular rate constant (M^−1 s^−1) for ESPT quenching by the proton-accepting quencher, and the sum of the activities of B and BH^+ is approximated as the total concentration of the proton-accepting quencher. While the pKa of the proton-accepting quencher is an adjustable parameter during best fitting, extracted pKa values are close to pKa values obtained from the acid-base titration curves of the proton-accepting quenchers. Changing the proton-accepting quencher to one with a smaller pKa value results in a slower non-diffusion-limited rate constant for ESPT with NS—NH2*. The observation of ESPT directly from NS—NH2* to each of two different amino acids, Gly and Pro, is notable, and may have important implications for biological systems where direct protonation of proteins can induce cellular responses.
Table 2 lists driving-force-dependent rate constants for direct excited-state proton transfer from NS—NH2* to various proton-accepting quenchers.
(§1) Several embodiments use the steady-state ultraviolet-visible electronic absorption and photoluminescence spectroscopy for characterization. Equal amounts of aromatic amine photoacids are portioned into five separate 100 mL volumetric flasks. For the non-proton-accepting quencher experiments, the five flasks are filled to the volumetric marker with aqueous solutions of 1 M HCl, 1 M KOH, 2 M KOH, 3 M KOH, and 4 M KOH. The aqueous 1 M KOH solution is titrated with the aqueous 1 M HCl solution to reach the desired pH values from 14 to 6, and the H^+ activities are measured using a pH meter (pH/Ion 510). […] Electronic absorption spectra and photoluminescence spectra are acquired using absorbance and fluorescence spectrometer(s), using a square-bottom quartz cuvette (1 cm path length) at room temperature. Electronic absorption spectra are baselined on a spectrum of deionized water and were corrected for scattering of light. Photoluminescence spectra are recorded by exciting with 310 nm light, slit widths for the excitation and emission monochromators were set to 5 nm, and the PMT detector voltage is set to 600 V. Photoluminescence spectra are corrected for changes in solution refractive index, inner filter effects and the wavelength-dependent correction factor of the fluorimeter.

[3] = Acid-base titration of aqueous photoacid with absorption and steady-state photoluminescence detection (Henderson-Hasselbalch / Stern-Volmer fits, OH− as quencher)
Description: FIGS. 2A through 2C illustrate acid-base titration of an aqueous solution of NS—NH2 photoacid with absorption and photoluminescence detection in accordance with an embodiment.
where aOH− is the activity of OH^−(aq), K*b pseudo is an erroneous observed equilibrium constant for base dissociation and KSV,OH− is the Stern-Volmer quenching constant, which is strictly dimensionless but reported here in units of M^−1 to be consistent with its typical usage. Unlike the Henderson-Hasselbalch equation, the Stern-Volmer equation is also applicable to non-equilibrium processes.
and KSV,OH−=k+q,OH−τo,PAH*, where τ is the excited-state lifetime (s) of NS—NH2* in the absence (τo,PAH*) or presence (τPAH*) of OH^− quencher and k+q,OH− is the bimolecular rate constant (M^−1 s^−1) for quenching of NS—NH2* by OH^− (forward direction of Reaction 1 with B=OH^−(aq)).
as §1, with “fluorimeter. For experiments that use non-OH^− proton-accepting quenchers, equal amounts of the quencher are added to the dry volumetric flask intended to form the acidic and basic aqueous photoacid solutions, to prevent changes in total quencher concentration during the titration, and titrations are performed similarly to those in the absence of added proton-accepting quenchers. Although the total quencher concentration is kept constant throughout the titration, the activity of the deprotonated quencher species varied as a function of solution pH according to Equation 3. Ionic strength is matched at the most alkaline pH values; however, it is experimentally difficult to maintain the same ionic strength throughout the titration. Normalized photoluminescence intensities as a function of solution pH are obtained by dividing the corrected photoluminescence intensities at the wavelength of maximum photoluminescence to the maximum corrected photoluminescence intensity at the same wavelength.” for “fluorimeter.”

[4] = Stern-Volmer analysis of quenching of HPhenDS by proton acceptors; assay type: physicochemical; conditions: quenching of aqueous HPhenDS, constant ionic strength
Description: ESPT availability and ESPT to water curves are calculated from steady-state absorption and photoluminescence data for 15 μM HPhenDS across the pH window indicated at constant ionic strength (except for pH values below 0). Concentrations of all buffers were simulated to be 1 M total salt added. Ability to sense is predicted by estimating total concentration at a given pH value based on the pKa value of the buffer and fit to a Henderson-Hasselbalch-type equation. The resultant concentration is then multiplied by the ESPT availability of HPhenDS at each pH value.
FIGS. 21A and 21B illustrate Stern-Volmer analysis for quenching constant Ksv in accordance with an embodiment.

[5] = proton acceptor, aqueous; cited from earlier work
[6] = 1 M aqueous solution titrated with 4 M KOH
[7] = cited from earlier work
[8] = Stability of dye fluorescence near an operating gas diffusion electrode
[9] = cited from earlier work; remark: listed apart in the source
[10] = 1 M total trifluoroethanol present
[11] = conjugate acid of proton acceptor

Nc1cccc2c(S(=O)(=O)[O-])cccc12.[Na+] [NS—NH2, 5-aminonaphthalene-1-sulfonic acid sodium salt]
ΔGo,PT‡ ([1]; Gibbs free energy of activation of proton-transfer step at ΔGPT°=0): 0.080±0.005 eV
“true” pK*a ([1]; Marcus-Cohen BEBO analysis): 11.7±0.1
bimolecular rate constant, deprotonation of NS—NH2* by OH−(aq) ([2]; 0.17 M total phosphate present): (163±8)×10^8 M^−1 s^−1
bimolecular rate constant, deprotonation of NS—NH2* by OH−(aq) ([2]; 1 M total glycine present): (43±1)×10^8 M^−1 s^−1
bimolecular rate constant, deprotonation of NS—NH2* by OH−(aq) ([2]; 1 M total proline present): (47±2)×10^8 M^−1 s^−1
bimolecular rate constant, deprotonation of NS—NH2* by OH−(aq) [2, 10]: (60±30)×10^8 M^−1 s^−1
bimolecular rate constant, deprotonation of NS—NH2* by OH−(aq) ([2]; 2 M total glycine present): (38±2)×10^8 M^−1 s^−1
KSV,OH− ([2]; 0.17 M total phosphate present): 37 ± 2 M⁻¹
KSV,OH− ([2]; 1 M total glycine present): 20 ± 1 M⁻¹
KSV,OH− ([2]; 1 M total proline present): 22 ± 1 M⁻¹
KSV,OH− [2, 10]: 30 ± 10 M⁻¹
KSV,OH− ([2]; 2 M total glycine present): 8.6 ± 0.4 M⁻¹
pKa ([3]; aqueous solution, ground-state pKa, aromatic amine, aqueous): > 17
KSV,τ,OH− (linearized Stern-Volmer) ([3]; lifetime data, linearized Stern-Volmer fit, OH−(aq) quencher): about 55±1 M^−1
KSV,τ,OH− ([3]; lifetime data, non-linear Stern-Volmer fit, OH−(aq) quencher): about 54±6 M^−1
bimolecular rate constant k+q,τ,OH− ([3]; lifetime data, forward direction of Reaction 1 with B=OH−(aq)): about (12±1)×10^9 M^−1 s^−1
KSV,ss,OH− ([3]; steady-state photoluminescence, non-linear Stern-Volmer fit, OH−(aq) quencher): about 47±1 M^−1
KSV,ss,OH− (linearized Stern-Volmer) ([3]; steady-state photoluminescence, traditional linearized Stern-Volmer fit, OH−(aq) quencher): about 46±1 M^−1

O=CO [Formate]
KSV [4]: about 0.4623 M^−1

Hydroxide
pKa,BH+ (Equation 7), value before the slash [2, 11]: 14/—
k+q,corr [2]: 100 ± 3 10^8 M^−1 s^−1
k+q [2]: 100 ± 3 10^8 M^−1 s^−1
Diffusion Coefficient [5]: 52.70 10^−6 cm^2/s

NCC(=O)O [Glycine]
pKa from acid-base titration curve [6]: 9.9
bimolecular rate constant, deprotonation of NS—NH2* by the quencher ([2]; 1 M total quencher): (0.39±0.02)×10^8 M^−1 s^−1
bimolecular rate constant, deprotonation of NS—NH2* by the quencher ([2]; 2 M total glycine): (0.90±0.04)×10^8 M^−1 s^−1
pKa,BH+ (Equation 7), value before the slash [2, 11]: 9.7
pKa,BH+ (Equation 7), value after the slash [2, 11]: 9.9
k+q,corr [2]: 1.44 ± 0.07 10^8 M^−1 s^−1
k+q [2]: 0.39 ± 0.02 10^8 M^−1 s^−1
KSV,quencher (Equation 7) ([2]; 1 M total quencher): 0.18 ± 0.01 M⁻¹
KSV,quencher (traditional linearized Stern-Volmer) ([2]; 1 M total quencher): 0.19 ± 0.01 M⁻¹
KSV,quencher (Equation 7) ([2]; 2 M total glycine): 0.20 ± 0.01 M⁻¹
Diffusion Coefficient [5]: 10.60 10^−6 cm^2/s

Oc1ccc2ccc3cccc4ccc1c2c34 [1-hydroxypyrene]
ground state pKa [7]: about 9

O=C(O)O [Bicarbonate]
KSV [4]: about 0.6051 M^−1

O=C([O-])[O-].[Na+].[Na+] [Carbonate]
KSV [4]: about 1.02 M^−1

O=S(=O)(O)c1cc(S(=O)(=O)O)c2ccc3c(O)cc(O)c4ccc1c2c43 [DHPDS, 6,8-dihydroxy-1,3-pyrenedisulfonic acid]
pK*a ([7]; strong photoacid): ≈ 0
fluorescent signal during GDE operation ([8]; cathodic current densities of 100 mA/cm^2 in magnitude, or larger): Some loss of fluorescent signal
photoluminescence intensity during GDE operation ([8]; current density between 0 and −20 mA/cm^2): no significant decrease in photoluminescence intensity

CC(=O)O [Acetate]
KSV [4]: about 0.1548 M^−1

Trifluoroethanol
pKa, literature value [9]: 12.4
pKa from acid-base titration curve [6]: 12.6
bimolecular rate constant, deprotonation of NS—NH2* by the quencher ([2]; 1 M total quencher): (11±2)×10^8 M^−1 s^−1
pKa,BH+ (Equation 7), value before the slash [2, 11]: 12.4
pKa,BH+ (Equation 7), value after the slash [2, 11]: 12.6
k+q,corr [2]: 58.7 ± 11.5 10^8 M^−1 s^−1
k+q [2]: 11.2 ± 2.2 10^8 M^−1 s^−1
KSV,quencher (Equation 7) ([2]; 1 M total quencher): 5 ± 1 M⁻¹
KSV,quencher (traditional linearized Stern-Volmer) ([2]; 1 M total quencher): 6.2 ± 0.1 M⁻¹
Diffusion Coefficient [5]: 6.00 10^−6 cm^2/s

Phosphate
pKa,BH+ (Equation 7), value before the slash [2]: 11.4/—
bimolecular rate constant, deprotonation of NS—NH2* by the quencher ([2]; 0.17 M total phosphate): (11±2)×10^8 M^−1 s^−1
k+q,corr [2]: 22.6 ± 3.8 10^8 M^−1 s^−1
k+q [2]: 5.4 ± 0.9 10^8 M^−1 s^−1
KSV,quencher (Equation 7) ([2]; 0.17 M total phosphate): 2.2 ± 0.3 M⁻¹
KSV,quencher (traditional linearized Stern-Volmer) ([2]; 0.17 M total phosphate): 3.4 ± 0.1 M⁻¹
Diffusion Coefficient [5]: 8.79 10^−6 cm^2/s
